Experimental findings from patent US20210179655A1, “Prodrugs of a JAK Inhibitor Compound for Treatment of Gastrointestinal Inflammatory Disease” (THERAVANCE BIOPHARMA R&D IP, LLC, priority 2015, published 2021) are described below.

SMILES strings stand for the structures.

The test system of series [1] is oxazolone-induced colitis. In words: Mouse model of oxazolone-induced colitis. Format: in vivo. The method, then: Oxazolone-induced colitis is an experimental model that has a histological resemblance to human ulcerative colitis (Heller et al. […], 2002, 17, 629-638). Adult BALB/C mice (25-28 g, 9-12 weeks of age) from BioNeeds (India) were used in the assay. On day 1, animals were lightly anesthetized with isoflurane and the hairs between the shoulder were carefully removed before oxazolone (6 mg/mouse, 100 μL, 4:1 acetone: olive oil formulation) or vehicle solution was slowly applied for skin sensitization. Six days after skin sensitization, the mice were fasted overnight, anesthetized with ketamine and xylazine administered IP, and a 1 mL syringe filled with oxazolone solution, was inserted carefully ˜3.8 cm into the colon of the mouse. Animals were kept in a head down position and oxazolone (0.5 mg/50 μL/mouse in 50% ethanol) or 50% ethanol/saline was rectally instilled very slowly over a minute. The mice were held vertically (head down) for another minute to ensure that the entire oxazolone solution remained inside the colon. Drug treatment (PO, BID or TID) or vehicle was initiated the evening prior to the oxazolone intrarectal (IR) challenge. On both first (Day 1) and second (Day 2) days post-oxazolone IR challenge, the Disease Activity Index (DAI) was assessed by treatment-blinded experimenters for each mouse, according to the following subscores: stool consistency (0, normal; 2, loose; 4, diarrhea), gross bleeding and hemoccult test (0, absence; 2, blood tinged; 4, overt blood presence), and weight loss (0, none; 1, 1%-5%; 2, 6%-10%; 3, 11%-15%; 4, more than 15%); DAI=average of (stool consistency+blood presence+weight loss scores).
An area-under-the-curve (AUC) calculation based on total DAI scores was performed to track disease progression during the course of the experiment. AUC for each experimental group was calculated as: AUC=[(Day 1−Day 0)*Average (DAI Score of Day 0 & Day 1)]+[(Day 2−Day 1)*Average (DAI Score of Day 1 & Day 2)]. A Student's t-test compared the DAI AUC score of the vehicle/vehicle and vehicle/oxazolone groups to evaluate whether disease was induced following oxazolone treatment. This was followed by a one way ANOVA, with Dunnett's post hoc test, to compare the DAI AUC score of the vehicle/oxazolone and test compound/oxazolone groups. Statistical significance was defined by an α level set at p<0.05.

Another series deals with splenic NK cells. In words: Immunosuppression effects in mouse splenic natural killer (NK) cells. Format: in vivo. Conditions: mouse, oral dosing for three days. As to the method: Adult male Balb/C mice (12-14 weeks of age) from Harlan were used for the study. […] Spleens were harvested 30 min or 3 h post last dose and crushed immediately for cell subtype staining. Prior to fixation, fluorophore-labelled antibodies for CD19 (FITC; B cells), CD3e (PE; pan T cells) and DX5 (APC; NK cells) were incubated with splenocyte samples from each animal to allow for simultaneous, multiple subtype % analysis on the flow cytometer. The number of total spleen cells for each animal was measured by Scepter™ 2.0 Handheld Automated Cell Counter.
The absolute number of lymphocyte subtype population (e.g., splenic B, T and NK cells) was calculated from the percentage of each subtype times total spleen cells for each animal. A one way ANOVA, with Dunnett's post hoc test, was used to compare the splenic lymphocytes number of the vehicle and test compound groups. The a level was set at p<0.05. Data were presented as the mean SEM for each group.

Series [2] is described as follows: Rat colon fecal homogenate stability. The series is classed as in vitro ADME. Conditions: male, rat colon fecal homogenate supernatant, read-out: T½ (In vitro colonic stability, loss of pro-drug). As to the method:
The objective of this study was to determine the stability of the present compounds in rat colon fecal homogenate, i.e. the half-life for decomposition in the presence of the β-glucuronidase in rat colon feces.
Following sacrifice of a naïve male rat (˜300 g) by cardiac puncture exsanguination, the colon was ligated and removed to an anaerobic chamber (AS-580, Anaerobe Systems). The fecal content was removed within the chamber and was diluted 1:10 (1 gram to 9 mL phosphate buffer) and then homogenized using a handheld Omni Tissue Master. The fecal homogenate was centrifuged at 2000 g for 10 min to remove bulk and the supernatant was removed and used for the incubations.
Test articles and a positive control (sulfasalazine) were prepared as 10 mM DMSO stocks. The final substrate concentration of each assay was 10 μM (30 μM for compound 5). Reactions were started by adding a 5 μL aliquot of diluted test compound stock into 300 μL of rat fecal supernatant-homogenate. At 0, 15, 30, 60, 90, and 120 min post reaction initiation, a 50 μL aliquot was removed into 200 μL of acetonitrile with 3% formic acid and an internal standard molecule. All samples were centrifuged at 2000 g for 10 min after which 50 μL of supernatant was diluted into 150 μL of water for analysis on an LC-MS system. In vitro half-lives for loss of pro-drug were calculated as follows: (T½=0.693/elimination rate constant).

Series [3] in a line: Metabolic stability of comparison compounds in rat colon content. Conditions: 10 μM in rat colonic content, up to 120 min. Format: in vitro ADME. The method, then:
Colonic fecal content was harvested from a naïve male Sprague Dawley rat and was diluted 1:10 (1 gram to 9 mL phosphate buffer) and then homogenized using a handheld Omni Tissue Master. […] A 5 μL aliquot of diluted test compound was spiked into 300 μL of rat colonic content homogenate to begin the reaction at 37° C. Aliquots (50 μL) were removed from the incubation at the following time points (0, 15, 50, 85, and 120 min) and added into 200 μL of ACN with 3% formic acid and an internal standard molecule. […] All samples were centrifuged at 2000×g for 10 min after which 50 μL of supernatant was diluted into 150 μL of water and analyzed using a Thermo Q-Exactive LC-MS system. GraphPad Prism and Microsoft Excel were used to tabulate and plot the data.

As for `C[C@@H]1CCN(C(=O)CC#N)C[C@@H]1N(C)c1ncnc2[nH]ccc12` [Tofacitinib, 3-((3R,4R)-4-methyl-3-(methyl(7H-pyrrolo[2,3-d]pyrimidin-4-yl)amino)piperidin-1-yl)-3-oxopropanenitrile, reference compound], in series [1] (Effective dose that exhibits a comparable pharmacological effect in the oxazolone model compared to its vehicle), the “In vivo efficacy (oxazolone colitis), effective dose” value is given as 30 mg/kg. Also, the “Systemic functional activity (splenic NK depletion)” value with splenic NK cells was determined as 10 mg/kg.

Turning to `Cc1cc(COC(=O)N(C)CCN(C)C(=O)n2ccc3c(N(C)[C@H]4CN(C(=O)CC#N)CC[C@H]4C)ncnc32)ccc1O[C@@H]1O[C@H](C(=O)O)[C@@H](O)[C@H](O)[C@H]1O` [Compound 5, (2S,3S,4S,5R,6S)-6-(4-((((2-(4-(((3R,4R)-1-(2-cyanoacetyl)-4-methylpiperidin-3-yl)(methyl)amino)-N-methyl-7H-pyrrolo[2,3-d]pyrimidine-7-carboxamido)ethyl)(methyl)carbamoyl)oxy)methyl)-2-methylphenoxy)-3,4,5-trihydroxytetrahydro-2H-pyran-2-carboxylic acid], the half-life at 30 μM in series [2] (30 μM) came to 6 min.

With `C[C@@H]1CCN(C(=O)CC#N)C[C@@H]1N(C)c1ncnc2c1ccn2C(=O)N(C)CCN(C)C(=O)OCc1ccc(O[C@@H]2O[C@H](C(=O)O)[C@@H](O)[C@H](O)[C@H]2O)c(Cl)c1` [Compound 6, (2S,3S,4S,5R,6S)-6-(2-chloro-4-((((2-(4-(((3R,4R)-1-(2-cyanoacetyl)-4-methylpiperidin-3-yl)(methyl)amino)-N-methyl-7H-pyrrolo[2,3-d]pyrimidine-7-carboxamido)ethyl)(methyl)carbamoyl)oxy)methyl)phenoxy)-3,4,5-trihydroxytetrahydro-2H-pyran-2-carboxylic acid], the half-life at 10 μM in series [2] was found to be 7 min.

As for `Cc1cc(S(C)(=O)=O)ncc1-c1ccc2c(c1)cc(-c1cncc(F)c1C)n2C(=O)N(C)CCN(C)C(=O)OCc1ccc(O[C@@H]2O[C@H](C(=O)O)[C@@H](O)[C@H](O)[C@H]2O)c([N+](=O)[O-])c1` [Compound C-2], in series [3], the “generation of active metabolite from the pro-drug” value is “failed to generate any measurable amounts”.

On to `COc1cc(COC(=O)N(C)CCN(C)C(=O)n2ccc3c(N(C)[C@H]4CN(C(=O)CC#N)CC[C@H]4C)ncnc32)ccc1O[C@@H]1O[C@H](C(=O)O)[C@@H](O)[C@H](O)[C@H]1O` [Compound 7, (2S,3S,4S,5R,6S)-6-(4-((((2-(4-(((3R,4R)-1-(2-cyanoacetyl)-4-methylpiperidin-3-yl)(methyl)amino)-N-methyl-7H-pyrrolo[2,3-d]pyrimidine-7-carboxamido)ethyl)(methyl)carbamoyl)oxy)methyl)-2-methoxyphenoxy)-3,4,5-trihydroxytetrahydro-2H-pyran-2-carboxylic acid], for which, in series [2], the half-life at 10 μM lay in the range of 3 to 8 min.

Take `C[C@@H]1CCN(C(=O)CC#N)C[C@@H]1N(C)c1ncnc2c1ccn2C(=O)N(C)CCN(C)C(=O)OCc1ccc(O[C@@H]2O[C@H](C(=O)O)[C@@H](O)[C@H](O)[C@H]2O)cc1` [Compound 4, (2S,3S,4S,5R,6S)-6-(4-((((2-(4-(((3R,4R)-1-(2-cyanoacetyl)-4-methylpiperidin-3-yl)(methyl)amino)-N-methyl-7H-pyrrolo[2,3-d]pyrimidine-7-carboxamido)ethyl)(methyl)carbamoyl)oxy)methyl)phenoxy)-3,4,5-trihydroxytetrahydro-2H-pyran-2-carboxylic acid]: the “reversal of oxazolone-induced colitis (DAI AUC score)” value in series [1] (separate experiment, 3, 10, and 30 mg/kg, PO, BID, similar magnitude to tofacitinib 30 mg/kg) is “significant reversal”. Moreover, the half-life at 10 μM in series [2] was in the range of 1 to 13 min.

As for `CN(CCN(C)C(=O)OCc1ccc(O[C@@H]2O[C@H](C(=O)O)[C@@H](O)[C@H](O)[C@H]2O)c([N+](=O)[O-])c1)C(=O)Nc1ccc(O)c(C(=O)O)c1` [Compound C-1], in series [3], the “generation of active metabolite from the pro-drug” value is given as “failed to generate any measurable amounts”.
